Counter-ions that a name gives are not always drawn.
biological target: T1, human HSL (Homo sapiens, UniProt Q05469); experiment: Human Hormone-Sensitive Lipase (HSL) enzyme inhibition assay (colorimetric, DMPT substrate); type: biochemical; conditions: read-out: HSL hum IC50
T1 construct: generate a full length human HSL ORF with a 3′-His6 tag; His6 (C); made in house; host or cells: High 5 insect cells (baculovirus, pFast-BAC)
T1 sequence (Q05469 1-1076): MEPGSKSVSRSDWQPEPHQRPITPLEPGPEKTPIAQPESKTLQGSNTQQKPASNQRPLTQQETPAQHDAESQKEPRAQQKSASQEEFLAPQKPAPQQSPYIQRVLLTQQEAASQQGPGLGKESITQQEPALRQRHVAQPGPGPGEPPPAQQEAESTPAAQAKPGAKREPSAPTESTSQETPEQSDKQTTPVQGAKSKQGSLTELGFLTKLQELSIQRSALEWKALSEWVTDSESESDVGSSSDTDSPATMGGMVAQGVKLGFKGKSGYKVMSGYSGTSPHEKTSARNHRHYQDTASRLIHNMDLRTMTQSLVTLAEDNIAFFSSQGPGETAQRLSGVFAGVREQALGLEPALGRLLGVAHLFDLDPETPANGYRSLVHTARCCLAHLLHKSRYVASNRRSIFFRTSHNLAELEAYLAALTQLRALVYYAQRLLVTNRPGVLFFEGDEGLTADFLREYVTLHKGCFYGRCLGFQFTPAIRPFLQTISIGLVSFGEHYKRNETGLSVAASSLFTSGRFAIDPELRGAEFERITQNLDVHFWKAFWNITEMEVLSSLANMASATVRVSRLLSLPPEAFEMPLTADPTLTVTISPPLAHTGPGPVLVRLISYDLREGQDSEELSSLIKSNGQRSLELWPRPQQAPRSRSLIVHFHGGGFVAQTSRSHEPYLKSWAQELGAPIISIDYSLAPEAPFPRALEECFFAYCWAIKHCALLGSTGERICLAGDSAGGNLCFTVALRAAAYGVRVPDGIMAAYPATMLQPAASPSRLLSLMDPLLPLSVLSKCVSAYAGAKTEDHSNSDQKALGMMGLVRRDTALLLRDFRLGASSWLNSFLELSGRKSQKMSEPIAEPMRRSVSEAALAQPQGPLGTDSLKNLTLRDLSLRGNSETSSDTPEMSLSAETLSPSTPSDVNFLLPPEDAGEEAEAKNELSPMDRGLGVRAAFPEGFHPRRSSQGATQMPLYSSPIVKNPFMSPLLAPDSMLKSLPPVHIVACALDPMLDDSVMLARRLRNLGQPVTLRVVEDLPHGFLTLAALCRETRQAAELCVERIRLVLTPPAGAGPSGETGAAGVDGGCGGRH
Description: Production of Human Full Length Hormone Sensitive Lipase-His^6
1) Cloning: cDNA was prepared from commercial human brain polyA+ RNA and used as a template in overlapping PCR to generate a full length human HSL ORF with a 3′-His6 tag. This full length insert was cloned into the pFast-BAC vector and the DNA-sequence of several single clones was verified. DNA from a correct full length clone with the 3′His6 tag was used to transform the E. coli strain DH10BAC. Resulting bacmid DNA was used to generate a titered baculovirus stock for protein generation. The sequence of the encoded HSL conforms to Swissprot entry Q05469, with the additional C-terminal His6-tag.
2) Protein purification: Culture: 5.5 L, High 5 cells expressing human full length HSL-His^6, 48 hr., containing 25 μM E-64. Cell count: […], 90% viable.
Cells were thawed. On ice, cells were suspended in Base Buffer containing 10% glycerol, 25 mM Tris-Cl, 300 mM NaCl, 10 mM imidazole, 10 mM 2-mercaptoethanol, 2 μg pepstatin/ml, 2 μg leupeptin/ml, 2 μg antipain/ml, pH 8.0 at 4° C. in a final volume of 475 ml with 3.75×10^7 cells/ml. […] was done at 3×30 sec., Lubrol PX was added to 0.2% final concentration followed by stirring for 15 min. at 4° C. and centrifugation at 25 k×g, 60 min., 4° C. Soluble proteins were mixed with 60 ml of pre-washed and equilibrated Ni-NTA Agarose (Qiagen 30210) followed by tumbling end-over-end, 45 min., 4° C., centrifugation 1000 rpm 5 min and letting resin settle 5 min. Supernatant was removed, the resin washed in the centrifuge vessel using 5 volumes of Base Buffer containing 0.2% Lubrol PX. Centrifugation was done again, then the supernatant discarded. The resin was poured onto a 0.8 μm membrane in a disposable filter unit (Nalge 450-0080), and washed with 5 volumes of Base Buffer containing 0.2% Lubrol PX. It was then washed with 30 volumes of Base Buffer containing 60 mM imidazole pH 7.5 at 4° C. The protein was eluted with 5 volumes of 25 mM Tris-Cl, 300 mM NaCl, 200 mM imidazole, 10 mM 2-mercaptoethanol, pH 7.5 at 4° C. by tumbling resin with buffer end-over-end, 30 min., 4° C. The resin was captured on a 0.2 μm membrane disposable filter unit (Millipore SCGP U02 RE) and the elute collected in the reservoir. The elute was concentrated using a 30 k MWCO centrifugal filter device (Sartorius Vivascience Vivacell 100, VC1022), to 20 ml. It was then dialyzed overnight at 4° C., two times against 2 L of 10% glycerol, 25 mM Tris-Cl, 300 mM NaCl, 0.2 mM EDTA, 0.2 mM DTT, pH 7.5 at 4° C. The protein was filtered using a 0.22 μm disposable filter unit (Millipore SCGP00525). The protein concentration was calculated from absorbance at 280 nm, using 280=0.67 cm-1 mg-1. Yield was 235 mg, total. The protein was stored at −80° C. Human Hormone-Sensitive Lipase (HSL) enzyme inhibition assay:
HSL enzyme activity was measured by a colorimetric assay using 2,3-dimercapto-1-propanol tributyrate (Aldrich, St. Louis, Mo.) as a substrate. Typically, 1.5 mM 2,3-dimercapto-1-propanol tributyrate (DMPT) in 100 mM MOPS, pH 7.2, 0.2 mg/ml fatty acid-free BSA was prepared by sonication at 4° C. to homogenous suspension. Test compounds (2 mM stock in DMSO) were diluted 3 fold in series in DMSO. Compound solutions were diluted 24 fold in 1.5 mM DMPT containing solution and 18 ul per well was added to 384-well microplates (Corning Costar). Twelve microliters per well of human HSL (15 ug/ml) was added and the reaction mixture was incubated at 37° C. for 20 minutes. Six microliters of 12 mM dithio-bis-(2-nitrobenzoic acid) (DTNB) in DMSO plus 1.2% SDS and 0.6% Triton X-100 were added and the mixture was incubated at room temperature for 15 minutes. Product production was monitored by reading absorbance at 405 nm on an Envision Reader (PerkinElmer Life and Analytical Sciences, Shelton, Conn.).

| Compound | IC50 [nM] |
| --- | --- |
| Cc1ccccc1S(=O)(=O)N1CCC(N)(C(=O)Nc2ccc(C(C)C)cc2)CC1 [Example 119, 4-Amino-1-(toluene-2-sulfonyl)-piperidine-4-carboxylic acid (4-isopropyl-phenyl)-amide] | 60 |
| CCc1ccc(NC(=O)C2(N)CCN(S(=O)(=O)c3ccc(OC)cc3)CC2)cc1 [Example 139, 4-Amino-1-(4-methoxy-benzenesulfonyl)-piperidine-4-carboxylic acid (4-ethyl-phenyl)-amide] | 80 |
| O=C(Nc1ccc(OC(F)(F)F)cc1)C1(O)CCN(S(=O)(=O)c2ccccc2F)CC1 [Example 61, 1-(2-Fluoro-benzenesulfonyl)-4-hydroxy-piperidine-4-carboxylic acid (4-trifluoromethoxy-phenyl)-amide] | 100 |
| CCc1ccc(NC(=O)C2(N)CCN(Cc3ccccc3F)CC2)cc1 [Example 153, 4-Amino-1-(2-fluoro-benzyl)-piperidine-4-carboxylic acid (4-ethyl-phenyl)-amide] | 170 |
| CC(C)Oc1ccc(NC(=O)C2(N)CCN(S(=O)(=O)c3ccccc3Cl)CC2)cc1 [Example 96, 4-Amino-1-(2-chloro-benzenesulfonyl)-piperidine-4-carboxylic acid (4-isopropoxy-phenyl)-amide] | 50 |
| CN(C(=O)C1(O)CCN(S(=O)(=O)CC(C)(C)C)CC1)c1ccc(OC(F)(F)F)cc1 [Example 65, 1-(2,2-Dimethyl-propane-1-sulfonyl)-4-hydroxy-piperidine-4-carboxylic acid methyl-(4-trifluoromethoxy-phenyl)-amide] | 490 |
| CN(C(=O)C1(O)CCN(Cc2ccccc2F)CC1)c1ccc(OC(F)(F)F)cc1 [Example 67, 1-(2-Fluoro-benzyl)-4-hydroxy-piperidine-4-carboxylic acid methyl-(4-trifluoromethoxy-phenyl)-amide] | 190 |
| CCN(C(=O)C1(O)CCN(S(=O)(=O)c2ccccc2C)CC1)c1ccc(OC(F)(F)F)cc1 [Example 74, 4-Hydroxy-1-(toluene-2-sulfonyl)-piperidine-4-carboxylic acid ethyl-(4-trifluoromethoxy-phenyl)-amide] | 880 |
| CCc1ccc(NC(=O)C2(N)CCN(S(=O)(=O)c3ccccc3OC(F)(F)F)CC2)cc1 [Example 149, 4-Amino-1-(2-trifluoromethoxy-benzenesulfonyl)-piperidine-4-carboxylic acid (4-ethyl-phenyl)-amide] | 50 |
| CCc1ccc(NC(=O)C2(N)CCN(S(=O)(=O)c3ccccc3C)CC2)cc1 [Example 135, 4-Amino-1-(toluene-2-sulfonyl)-piperidine-4-carboxylic acid (4-ethyl-phenyl)-amide] | 80 |
| CC(C)c1ccc(NC(=O)C2(N)CCN(S(=O)(=O)c3ccccc3Cl)CC2)cc1 [Example 116, 4-Amino-1-(2-chloro-benzenesulfonyl)-piperidine-4-carboxylic acid (4-isopropyl-phenyl)-amide; hydrochloride] | 40 |
| CCc1ccc(NC(=O)C2(N)CCN(S(=O)(=O)CC3CCCCC3)CC2)cc1 [Example 144, 4-Amino-1-cyclohexylmethanesulfonyl-piperidine-4-carboxylic acid (4-ethyl-phenyl)-amide] | 140 |
| CC(C)CC(=O)N1CCC(N)(C(=O)Nc2ccc(C(C)C)cc2)CC1 [Example 128, 4-Amino-1-(3-methyl-butyryl)-piperidine-4-carboxylic acid (4-isopropyl-phenyl)-amide] | 660 |
| Cc1ccc(S(=O)(=O)N2CCC(N)(C(=O)Nc3ccc(C(C)C)cc3)CC2)cc1 [Example 78, 4-Amino-1-(toluene-4-sulfonyl)-piperidine-4-carboxylic acid (4-isopropyl-phenyl)-amide; hydrochloride] | 70 |

Continued by falling IC50, values first:

| IC50 [nM] | Compound |
| --- | --- |
| 320 | CC(C)(C)c1ccc(NC(=O)C2(O)CCN(Cc3ccc(C(F)(F)F)cc3)CC2)cc1 [Example 20, 4-Hydroxy-1-(4-trifluoromethyl-benzyl)-piperidine-4-carboxylic acid (4-tert-butyl-phenyl)-amide] |
| 230 | CC(C)(C)c1ccc(NC(=O)C2(O)CCN(Cc3ccccc3C(F)(F)F)CC2)cc1 [Example 47, 4-Hydroxy-1-(2-trifluoromethyl-benzyl)-piperidine-4-carboxylic acid (4-tert-butyl-phenyl)-amide] |
| 220 | Cc1ccccc1CN1CCC(O)(C(=O)Nc2ccc(C(C)(C)C)cc2)CC1 [Example 46, 4-Hydroxy-1-(2-methyl-benzyl)-piperidine-4-carboxylic acid (4-tert-butyl-phenyl)-amide] |
| 160 | CC(C)c1ccc(NC(=O)C2(N)CCN(Cc3ccc(F)cc3)CC2)cc1 [Example 121, 4-Amino-1-(4-fluoro-benzyl)-piperidine-4-carboxylic acid (4-isopropyl-phenyl)-amide; hydrochloride] |
| 150 | CCc1ccc(NC(=O)C2(N)CCN(C(c3ccccc3)c3ccccc3)CC2)cc1 [Example 159, 4-Amino-1-benzhydryl-piperidine-4-carboxylic acid (4-ethyl-phenyl)-amide] |
| 80 | CC(C)c1ccc(NC(=O)C2(N)CCN(Cc3ccccc3OC(F)(F)F)CC2)cc1 [Example 113, 4-Amino-1-(2-trifluoromethoxy-benzyl)-piperidine-4-carboxylic acid (4-isopropyl-phenyl)-amide; hydrochloride] |
| 50 | Cc1ccc(S(=O)(=O)N2CCC(N)(C(=O)Nc3ccc(OC(F)(F)F)cc3)CC2)cc1 [Example 80, 4-Amino-1-(toluene-4-sulfonyl)-piperidine-4-carboxylic acid (4-trifluoromethoxy-phenyl)-amide; hydrochloride] |

From patent US8399676B2, “Piperidine derivatives” (Hoffman-La Roche Inc., priority 2009, dated 2013)
